Experimental data as given in patent EP4514928B1, “USE OF AN ANTIOXIDANT FOR REDUCING AND/OR PREVENTING THE TOXICITY OF A LUBRICANT COMPOSITION” (priority 2022, dated 2023).

Columns and labels:
Planaires adultes entier = conditions: adult planarians, 12 days, checks at 7 and 12 days, 0,22 mg/L - 22 mg/L; for Concentration à partir de laquelle une mortalité significative du planaire est observée: according to Zhang et al. 2019; for Concentration à partir de laquelle sont observés des troubles du comportement potentiellement liés à des troubles cognitifs du planaire: adhérence, vitesse de déplacement, repos, phototaxie, scrunching
Experimental: La méthodologie utilisée est la suivante Tous les composés sont fournis sous forme de poudres. Un volume approprié de DMSO 100 % (Sigma) a été ajouté, comme indiqué sur les tubes, pour obtenir une solution mère à 4,4 mg/ml (soit 200 fois plus concentrée que la concentration maximale de test).

vie aquatique = conditions: long-term effects; cited from earlier work
[1] = cited from earlier work

| Compound | Concentration à partir de laquelle une mortalité significative du planaire est observée (Planaires adultes entier) | Concentration à partir de laquelle sont observés des troubles du comportement potentiellement liés à des troubles cognitifs du planaire (Planaires adultes entier) | Toxicité (Informations ECHA - 2021): vie aquatique (écotoxique) (vie aquatique) | Toxicité (Informations ECHA - 2021): toxicité aiguë ([1]; if swallowed) | Toxicité (Informations ECHA - 2021): dommages aux organes ([1]; prolonged or repeated exposure) |
| --- | --- | --- | --- | --- | --- |
| CC(C)CC(C)Nc1ccc(Nc2ccccc2)cc1 (centres unmarked) [compound 22, N-(1,3-Diméthylbutyl)-N'-phényl-p-phénylènediamine] | 4,8 mg/L | 1,5 mg/L | – | – | – |
| c1ccc(Nc2cccc3ccccc23)cc1 [compound 19, N-phénylnaphthalène-1-amine] | 6,9 mg/L | 2,2 -3,9 mg/L | Est très toxique pour la vie aquatique avec des effets à long terme (écotoxique) | est nocif s'il est avalé (toxicité aiguë) | peut causer des dommages aux organes par exposition prolongée ou répétée |
| Bis(nonylphényl)amine [Irganox® L67] | – | – | Est nocif pour la vie aquatique avec des effets à long terme (écotoxique) https://echa.europa.eu/fr/substance-information/-/substanceinfo/100.048.393 Evaluation en 2021 pour suspicion de Mutagénicité et PBT | – | – |
